Legend:
[1] = test system: MDA-MB-231; experiment: Cytotoxicity against FPPS-negative human MDA-MB-231 cells assessed as reduction in cell viability measured after 48 hrs by MTT assay; assay type: functional, cell-based; settings: MDA-MB-231, 48 h
[2] = test system: LoVo; experiment: Cytotoxicity against FPPS-positive human Lovo cells assessed as reduction in cell viability measured after 48 hrs by MTT assay
[3] = test system: HCT-116; experiment: Cytotoxicity against FPPS-positive human HCT116 cells assessed as reduction in cell viability measured after 48 hrs by MTT assay; settings: HCT-116, 48 h
[4] = target: T1, Farnesyl pyrophosphate synthase (Rattus norvegicus, UniProt P05369); experiment: Binding affinity to rat FPPS expressed in Escherichia coli BL21 (DE3) by isothermal titration calorimetry
T1 sequence (P05369 whole entry): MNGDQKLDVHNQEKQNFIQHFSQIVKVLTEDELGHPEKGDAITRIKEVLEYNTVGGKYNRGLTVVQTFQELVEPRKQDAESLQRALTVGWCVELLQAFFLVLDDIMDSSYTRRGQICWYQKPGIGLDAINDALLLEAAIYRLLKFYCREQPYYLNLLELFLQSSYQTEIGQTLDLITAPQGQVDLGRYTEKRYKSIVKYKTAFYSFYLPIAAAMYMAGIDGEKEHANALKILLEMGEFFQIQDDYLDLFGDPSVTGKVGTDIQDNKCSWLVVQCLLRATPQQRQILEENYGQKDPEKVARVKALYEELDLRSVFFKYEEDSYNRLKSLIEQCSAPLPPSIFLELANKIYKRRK

[5] = target: T2, Farnesyl pyrophosphate synthase (Rattus norvegicus) (UniProt P05369); experiment: Inhibition of rat FPPS expressed in Escherichia coli BL21 (DE3) using GPP and IPP as substrate at 10 uM incubated for 10 mins by microplate reader
T2 sequence (whole entry): T1 sequence (P05369 whole entry)

Row | Compound | IC50 [1] | IC50 [2] | IC50 [3] | Kd [4] | inhibition [5]
1 | O=P(O)(O)C(O)(Cn1ccnc1)P(=O)(O)O [ZOLEDRONIC ACID] | > 100 µM | 34.9 µM | 61.6 µM |  | 
2 | CNS(=O)(=O)c1cn(CC(=O)Nc2cc(C)cc(C)c2)cc1S(=O)(=O)NC |  |  |  | 442 µM | 23.4%
3 | CC(=O)N[C@H]1[C@H](OCc2ccccc2)O[C@H](CO)[C@@H](O)[C@@H]1O |  |  |  | 48.1 µM | 29.9%
